In general, IC50 refers to the concentration needed to halve the response being measured.

Molecules are shown by their SMILES.

For the first assay, the system named is AGS cells (KRAS^G12D). The assay is described as follows: Detection of cell proliferation in vitro by MTT/MTS method (cell activity experiment). Type of assay: cell-based. Conditions: AGS cells; MTT/MTS; 3 days of drug treatment; read-out: AGS IC50. In outline: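 After 3-day compound exposure (final DMSO 0.5%), viability of AGS (KRAS G12D) cells, plated 1000/well one day before dosing, was measured at 490 nm following 4 h MTT or MTS incubation. IC50 was fitted from dose–effect curves relative to DMSO-treated wells.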
Background: Tetrazolium dyes change colour on reduction, which living cells bring about.
Take `CSc1c(F)ccc2cc(O)cc(-c3ccc4c(N5C[C@H]6CC[C@@H](C5)N6)nc(OC[C@@]56CCCN5C[C@H](F)C6)nc4c3F)c12` [Example 336, 4-(4-((1R,5S)-3,8-diazabicyclo[3.2.1]octan-3-yl)-8-fluoro-2-(((2R,7aS)-2-fluorotetrahvdro-1H-pyrrolizin-7a(5H)-yl)methoxy)quinazolin-7-yl)-6-fluoro-5-(methylthio)naphthalen-2-ol]: the IC50 amounted to 0.0099 µM.

Staying with this assay, now noted: Homo sapiens, AGS, 72 h, AGS cells; MTT/MTS; 3 days of drug treatment; read-out: AGS IC50.
Regarding `CCC1CCc2cc(O)cc(-c3c4c(c5c(N6C[C@H]7CC[C@@H](C6)N7)nc(OC[C@@]67CCCN6C[C@H](F)C7)nc5c3F)OCO4)c21` (stereo partly drawn) [Example 394, 7-(9-((1R,5S)-3,8-diazabicyclo[3.2.1]octan-3-yl)-5-fluoro-7-(((2R,7aS)-2-fluorotetrahydro-1H-pyrrolizin-7a(5H)-yl)methoxy)-[1,3]dioxolo[4,5-f]quinazolin-4-yl)-1-ethyl-2,3-dihydro-1H-inden-5-ol], the IC50 stood at 0.075 µM. The same measure, in the same setting: the result for `CCC1c2c(C3=C(F)c4nc(OC[C@@]56CCCN5C[C@H](F)C6)nc(N5C[C@H]6CC[C@@H](C5)N6)c4C4=NCCN43)cc(O)cc2C2CC21` (stereo partly drawn) [Example 409, 5-(10-((1R,5S)-3,8-diazabicyclo[3.2.1]octan-3-yl)-6-fluoro-8-(((2R,7aS)-2-fluorotetrahydro-1H-pyrrolizin-7a(5H)-yl)methoxy)-2,3-dihydroimidazo[1′,2′:1,2]pyrido[4,3-d]pyrimidin-5-yl)-6-ethyl-1,1a,6,6a-tetrahydrocyclopropa[a]inden-3-ol] reads 0.045 µM; that for `Cc1cc(N)nc(-c2ncc3c(N4C[C@H]5CC[C@@H](C4)N5)nc(OC[C@@]45CCCN4C[C@H](F)C5)nc3c2F)c1C(F)(F)F` [Example 41, 6-(4-((1R,5S)-3,8-diazabicyclo[3.2.1]octan-3-yl)-8-fluoro-2-(((2R,7aS)-2-fluorotetrahydro-1H-pyrrolizin-7a(5H)-yl)methoxy)pyrido[4,3-d]pyrimidin-7-yl)-4-methyl-5-(trifluoromethyl) pyridin-2-amine], over 2.5 µM. For the molecule `C#Cc1cccc2cc(O)cc(-c3ncc4c(N5CC6CCCNC6C5)nc(OC[C@@]56CCCN5C[C@H](F)C6)nc4c3F)c12` (stereo partly drawn) [Example 53, 5-ethynyl-4-(8-fluoro-2-(((2R,7aS)-2-fluorotetrahydro-1H-pyrrolizin-7a(5H)-yl)methoxy)-4-(octahydro-6H-pyrrolo[3,4-b]pyridin-6-yl)pyrido[4,3-d]pyrimidin-7-yl)naphthalen-2-ol], the IC50 was over 2.5 µM.

Consider `C#Cc1c(F)ccc2cc(O)cc(N3CCc4c(nc(OC[C@@]56CCCN5C[C@H](F)C6)nc4N4C[C@H]5CC[C@@H](C4)N5)C3)c12` [Example 202, 4-(4-((1R,5S)-3,8-diazabicyclo[3.2.1]octan-3-yl)-2-(((2R,7aS)-2-fluorotetrahydro-1H-pyrrolizin-7a(5H)-yl)methoxy)-5,8-dihydropyrido[3,4-d]pyrimidin-7(6H)-yl)-5-ethynyl-6-fluoronaphthalen-2-ol], for which the 50% inhibitory concentration (IC50) came out at 0.0075 µM. Still for that read-out and setting: to `C#Cc1cccc2cc(O)cc(-c3ccc4c(N5C[C@H]6CC[C@@H](C5)O6)nc(OC[C@@]56CCCN5C[C@H](F)C6)nc4c3F)c12` [Example 157, 4-(4-((1R,5S)-8-oxa-3-azabicyclo[3.2.1]octan-3-yl)-8-fluoro-2-(((2R,7aS)-2-fluorotetrahydro-1H-pyrrolizin-7a(5H)-yl)methoxy)quinazolin-7-yl)-5-ethynylnaphthalen-2-ol] belongs 0.33 µM; to `C#Cc1c(F)ccc2cc(O)cc(-c3ncc4c(C5CCN(C(=O)CO)C5)nc(OC[C@@]56CCCN5C[C@H](F)C6)nc4c3F)c12` (stereo partly drawn) [Example 84, 1-(3-(7-(8-ethynyl-7-fluoro-3-hydroxynaphthalen-1-yl)-8-fluoro-2-(((2R,7aS)-2-fluorotetrahydro-1H-pyrrolizin-7a(5H)-yl)methoxy)pyrido[4,3-d]pyrimidin-4-yl)pyrrolidin-1-yl)-2-hydroxyethan-1-one], over 10 µM. As for `C#Cc1c(F)ccc2cc(O)cc(-c3ccc4c(N5CC(C)(NC)C5)nc(OC[C@@]56CCCN5C[C@H](F)C6)nc4c3F)c12` [Example 218, 5-ethynyl-6-fluoro-4-(8-fluoro-2-(((2R,7aS)-2-fluorotetrahydro-1H-pyrrolizin-7a(5H)-yl)methoxy)-4-(3-methyl-3-(methylamino)azetidin-1-yl)quinazolin-7-yl)naphthalen-2-ol], the IC50 is 0.98 µM. On the same count and under the same terms, to `Oc1cc(-c2ncc3c(N4C[C@H]5CC[C@@H](C4)C5(F)F)nc(OC[C@@]45CCCN4C[C@H](F)C5)nc3c2F)c2c(F)c(F)ccc2c1` [Example 33, 4-(4-((1R,5S)-8,8-difluoro-3-azabicyclo [3.2.1]octan-3-yl)-8-fluoro-2-(((2R,7aS)-2-fluorotetrahydro-1H-pyrrolizin-7a(5H)-yl)methoxy)pyrido[4,3-d]pyrimidin-7-yl)-5,6-difluoronaphthalen-2-ol] belongs over 2.5 µM; to `Oc1cc(-c2ncc3c(N4C[C@H]5CC[C@@H](C4)N5)nc(OCC4(CN5CCCC5)CC4)nc3c2F)c2c(F)cccc2c1` [Example 6, 4-(4-((1R,5S)-3,8-diazabicyclo[3.2.1]octan-3-yl)-8-fluoro-2-((1-(pyrrolidin-1-ylmethyl)cyclopropyl)methoxy)pyrido[4,3-d]pyrimidin-7-yl)-5-fluoronaphthalen-2-ol], 0.014 µM. The same measure, in the same setting: to `Oc1cc(-c2ccc3c(N4C[C@H]5CC[C@@H](C4)N5)nc(OC[C@@]45CCCN4C[C@H](F)C5)nc3c2F)c2c(F)cccc2c1` [Example 95, 4-(4-((1R,5S)-3,8-diazabicyclo[3.2.1]octan-3-yl)-8-fluoro-2-(((2R,7aS)-2-fluorotetrahydro-1H-pyrrolizin-7a(5H)-yl)methoxy)quinazolin-7-yl)-5-fluoronaphthalen-2-ol] belongs 0.0135 µM. The same measure, in the same setting: the result for `CCc1coc2cc(O)cc(-c3ccc4c(N5C[C@H]6CC[C@@H](C5)N6)nc(OC[C@@]56CCCN5C[C@H](F)C6)nc4c3F)c12` [Example 293, 4-(4-((1R,5S)-3,8-diazabicyclo[3.2.1]octan-3-yl)-8-fluoro-2-(((2R,7aS)-2-fluorotetrahydro-1H-pyrrolizin-7a(5H)-yl)methoxy)quinazolin-7-yl)-3-ethylbenzofuran-6-ol] reads 0.121 µM. For `Cc1cc(N)nc(-c2ncc3c(N4C[C@H]5CC[C@@H](C4)N5)nc(OC[C@@]45CCCN4C[C@H](F)C5)nc3c2F)c1C1CC1` [Example 72, 6-(4-((1R,5S)-3,8-diazabicyclo[3.2.1]octan-3-yl)-8-fluoro-2-(((2R,7aS)-2-fluorotetrahydro-1H-pyrrolizin-7a(5H)-yl)methoxy)pyrido[4,3-d]pyrimidin-7-yl)-5-cyclopropyl-4-methylpyridin-2-amine], the IC50 was over 2.5 µM.

Turning to `Nc1cc2ccc(F)c(F)c2c(-c2ncc3c(N4C[C@H]5CC[C@@H](C4)N5)nc(OC[C@@]45CCCN4C[C@H](F)C5)nc3c2F)n1` [Example 38, 1-(4-((1R,5S)-3,8-diazabicyclo[3.2.1]octan-3-yl)-8-fluoro-2-(((2R,7aS)-2-fluorotetrahydro-1H-pyrrolizin-7a(5H)-yl)methoxy)pyrido[4,3-d]pyrimidin-7-yl)-7,8-difluoroisoquinolin-3-amine], the IC50 was over 2.5 µM. Still for that read-out and setting: to `C#Cc1c(F)ccc2cc(O)cc(-c3ccc4c(N5CC(C(N)=O)C5)nc(OC[C@@]56CCCN5C[C@H](F)C6)nc4c3F)c12` [Example 215, 1-(7-(8-ethynyl-7-fluoro-3-hydroxynaphthalen-1-yl)-8-fluoro-2-(((2R,7aS)-2-fluorotetrahydro-1H-pyrrolizin-7a(5H)-yl)methoxy)quinazolin-4-yl)azetidine-3-carboxamide] belongs over 2.5 µM; to `CN1CCc2cc(O)cc(-c3ncc4c(N5C[C@H]6CC[C@@H](C5)N6)nc(OC[C@@]56CCCN5C[C@H](F)C6)nc4c3F)c2C1=O` [Example 273, 8-(4-((1R,5S)-3,8-diazabicyclo[3.2.1]octan-3-yl)-8-fluoro-2-(((2R,7aS)-2-fluorotetrahydro-1H-pyrrolizin-7a(5H)-yl)methoxy)pyrido[4,3-d]pyrimidin-7-yl)-6-hydroxy-2-methyl-3,4-dihydroisoquinolin-1(2H)-one], over 2.5 µM. On to `CN1CCCc2cc(O)cc(-c3ncc4c(N5C[C@H]6CC[C@@H](C5)N6)nc(OC[C@@]56CCCN5C[C@H](F)C6)nc4c3F)c21` [Example 359, 8-(4-((1R,5S)-3,8-diazabicyclo[3.2.1]octan-3-yl)-8-fluoro-2-(((2R,7aS)-2-fluorotetrahydro-1H-pyrrolizin-7a(5H)-yl)methoxy)pyrido[4,3-d]pyrimidin-7-yl)-1-methyl-1,2,3,4-tetrahydroquinolin-6-ol], for which the IC50 was determined as 0.035 µM. In the case of `C#Cc1c(F)ccc2cc(O)cc(-c3ccc4c(C5C[C@H]6CC[C@@H](C5)N6)nc(OC[C@@]56CCCN5C[C@H](F)C6)nc4c3F)c12` (stereo partly drawn) [Example 137, 4-(4-((1R,5S)-8-azabicyclo[3.2.1]octan-3-yl)-8-fluoro-2-(((2R,7aS)-2-fluorotetrahydro-1H-pyrrolizin-7a(5H)-yl)methoxy)quinazolin-7-yl)-5-ethynyl-6-fluoronaphthalen-2-ol], the IC50 is over 2.5 µM. Same read-out and setting: the result for `C#Cc1cc2c(N3C[C@H]4CC[C@@H](C3)N4)nc(OC[C@@]34CCCN3C[C@H](F)C4)nc2c(F)c1-c1cc(O)cc2c1C(CC)C1CC21` (stereo partly drawn) [Example 372, 5-(4-((1R,5S)-3,8-diazabicyclo[3.2.1]octan-3-yl)-6-ethynyl-8-fluoro-2-(((2R,7aS)-2-fluorotetrahydro-1H-pyrrolizin-7a(5H)-yl)methoxy)quinazolin-7-yl)-6-ethyl-1,1a,6,6a-tetrahydrocyclopropa[a]inden-3-ol] reads 0.065 µM; that for `C#Cc1c(F)ccc2cc(O)cc(-c3ccc4c(N5CC6CC(C5)N6)nc(OC[C@@]56CCCN5C[C@H](F)C6)nc4c3F)c12` [Example 107, 4-(4-(3,6-diazabicyclo [3.1.1]heptan-3-yl)-8-fluoro-2-(((2R,7aS)-2-fluorotetrahydro-1H-pyrrolizin-7a(5H)-yl)methoxy)quinazolin-7-yl)-5-ethynyl-6-fluoronaphthalen-2-ol], 0.105 µM.

The values are drawn from patent publication US20240300980A1, “HETEROCYCLIC COMPOUNDS AS KRAS INHIBITOR, AND PREPARATION THEREFOR AND USE THEREOF IN TREATMENT” (SHANGHAI KECHOW PHARMA, INC., priority 2021, published 2024).
